Results as given in patent US20160177395A1, “BIOMARKERS FOR THE PREDICTION OF RENAL INJURY” (priority 2007, published 2016).
Several values for one entry are separate records, joined by “and”; a condition that tells them apart may be missing. Identical values can stand only once.

Tested on: kidney tissues of treated or untreated rats
Experiment: Real-time qRT-PCR of marker transcripts in kidney tissue panel, discovery stage (Table 22)
Type: in vivo, rat
Set-up: AI502869_DB71_seg0 normalized Real Time PCR expression: unit not given beside the values
Conditions: listed as CadCl; for normalized Real Time PCR RATRAB13X_DB81_seg15-17 / normalized Real Time PCR RATRAB13X_DB81_seg22 / normalized Real Time PCR W33294_DB81_seg23 / normalized Real Time PCR W33294_DB81_seg44 / normalized Real Time PCR MMU09507_DB81_seg15 / normalized Real Time PCR MUSCYCG1R_DB81_seg19-20: kidney
Procedure: Before RT preparation the RNA was treated with DNA-free (Ambion, cat. No. AM1906) DNase treatment and removal—according to manufacturer protocol. DNase procedure was repeated until no DNA is detected in a PCR reaction using the RNA samples.
The mixture is then incubated for 5 min at 65° C. and then quickly chilled on ice. Thereafter, 20 μl of 5× SuperscriptII first strand buffer (Invitrogen, Cat. No. Y00146), 9.6 μl 0.1M DTT (Invitrogen, Cat. No. Y00147) and 160 units RNasin (Promega, Cat. No. N251A) are added, and the mixture is incubated for 10 min at 25° C., followed by further incubation at 42° C. for 2 min. […] The resulting cDNA is diluted 1:20 in TE buffer (10 mM Tris pH=8, 1 mM EDTA pH=8).
cDNA (5 μl), prepared as described above, is used as a template in Real-Time PCR reactions using the SYBR Green I assay (PE Applied Biosystem) with specific primers in 100 nM concentration if not indicated otherwise and UNG Enzyme (Eurogentech or equal) Amplification is effected as follows: 50° C. for 2 min, 95° C. for 10 min, and then 40 cycles of 95° C. for 15 sec, followed by 60° C. for 1 min (if not indicated otherwise). Amplification step is followed by dissociation step. Detection is performed by using the PE Applied Biosystem SDS 7000. The cycle in which the reactions achieved a threshold level (Ct) of fluorescence is registered and is used to calculate the relative transcript quantity in the RT reactions. Non-detected samples are assigned Ct value of 41 and are calculated accordingly. The relative quantity is calculated using the equation Q=efficiencŷ-Ct. The efficiency of the PCR reaction is calculated from a standard curve, created by using serial dilutions of several reverse transcription (RT) reactions. To minimize inherent differences in the RT reaction, the resulting relative quantities are normalized to normalization factor calculated as follows: […]
The relative quantity (Q) of each housekeeping gene in each sample is calculated as described above. In order to calculate the “relative Q relative to MED” each Q for each HSKP gene is divided by the median quantity of this gene in all panel samples. To finally achieve the normalization factor of each sample the geometric mean of all four “relative Q relative to MED” was calculated. The normalization factor was then used for further calculations.
The markers of the present invention were tested with regard to their expression in a panel of kidney tissues samples from treated and control rats. Unless otherwise noted, all experimental data relates to the novel polynucleotides and proteins of the present invention, named according to the segment being tested (as expression was tested through RT-PCR as described). Tests were then performed as described in the “Materials and Experimental Procedures” section above.
The qRT-PCR measurements were normalized according to each samples normalization factor as described in “RT Preparation and Real-Time qRT-PCR Analysis” and further multiplied by a constant factor for ease of viewing.

[1] = rat kidney, day1, individual animals (F and M)
[2] = rat kidney, day1, individual animals

Structure (SMILES): [Cl][Cd][Cl] [Cadmium chloride]
- normalized Real Time PCR RATRAB13X_DB81_seg15-17 (female rats, day1): 1.63 and 1.8 and 1.55
- normalized Real Time PCR RATRAB13X_DB81_seg22 (female rats, day1): 1.73 and 1.83 and 1.16
- normalized Real Time PCR W33294_DB81_seg23 (female rats, day1): 1.9 and 1.74 and 1.36
- normalized Real Time PCR W33294_DB81_seg44 (female rats, day1): 1.79 and 1.39 and 1.57
- normalized Real Time PCR MMU09507_DB81_seg15 (female rats, day5): 0.87 and 0.56
- normalized Real Time PCR MUSCYCG1R_DB81_seg19-20 (female rats, day5): 1.21 and 1.01
- normalized Real Time PCR RATRAB13X_DB81_seg15-17 (female rats, day5): 1.81 and 0.97
- normalized Real Time PCR RATRAB13X_DB81_seg22 (female rats, day5): 1.56 and 1.1
- normalized Real Time PCR W33294_DB81_seg23 (female rats, day5): 1.76 and 1.7
- normalized Real Time PCR W33294_DB81_seg44 (female rats, day5): 2.05 and 1.37
- normalized Real Time PCR MUSCYCG1R_DB81_seg19-20 (female rats, day28): 0.54 and 0.62 and 0.56
- normalized Real Time PCR RATRAB13X_DB81_seg15-17 (female rats, day28): 0.83 and 0.89 and 0.82
- normalized Real Time PCR RATRAB13X_DB81_seg22 (female rats, day28): 0.7 and 0.9 and 0.46
- normalized Real Time PCR W33294_DB81_seg23 (female rats, day28): 0.94 and 0.97 and 0.85
- normalized Real Time PCR W33294_DB81_seg44 (female rats, day28): 0.88 and 0.69 and 0.7
- normalized Real Time PCR MUSCYCG1R_DB81_seg19-20 (male rats, day1): 0.58 and 1.03 and 0.78
- normalized Real Time PCR RATRAB13X_DB81_seg15-17 (male rats, day1): 0.73 and 0.92 and 1.01
- normalized Real Time PCR RATRAB13X_DB81_seg22 (male rats, day1): 0.92 and 1.29 and 0.67
- normalized Real Time PCR W33294_DB81_seg23 (male rats, day1): 0.62 and 0.31 and 0.37
- normalized Real Time PCR MMU09507_DB81_seg15 (male rats, day5): 0.33 and 0.49 and 0.38
- normalized Real Time PCR MUSCYCG1R_DB81_seg19-20 (male rats, day5): 1.22 and 1.12 and 1.04
- normalized Real Time PCR RATRAB13X_DB81_seg15-17 (male rats, day5): 1.18 and 0.88 and 1.07
- normalized Real Time PCR RATRAB13X_DB81_seg22 (male rats, day5): 1.65 and 1.58 and 1.21
- normalized Real Time PCR W33294_DB81_seg23 (male rats, day5): 1.41 and 1.45 and 1.03
- normalized Real Time PCR W33294_DB81_seg44 (male rats, day5): 1.32 and 1.43 and 1.42
- normalized Real Time PCR MMU09507_DB81_seg15 (male rats, day28): 0.42 and 0.45
- normalized Real Time PCR RATRAB13X_DB81_seg22 (male rats, day28): 0.63 and 0.87 and 0.49
- normalized Real Time PCR W33294_DB81_seg23 (male rats, day28): 0.7 and 0.65
- normalized Real Time PCR W33294_DB81_seg44 (male rats, day28): 0.73 and 0.53
- H33998_DB71_seg19 normalized Real Time PCR [1]: 2.29 and 2.51 and 0.01 and 0.76 and 0.66 and 0.69
- MUSCYCG1R_DB81_seg15-17 normalized Real Time PCR [1]: 1.91 and 1.36 and 1.68 and 0.61 and 0.73 and 0.36
- RATLRFI_DB71_seg9 normalized Real Time PCR [1]: 0.27 (2×) and 0.33 and 0.32 and 0.36 and 0.23
- RATRAB13X_DB71_seg11-13 normalized Real Time PCR [1]: 0.95 (2×) and 1.2 and 1.05 and 1.22 and 1.14
- RNU24174_DB71_seg8 normalized Real Time PCR [1]: 0.3 and 0.29 and 0.49 and 0.2 and 0.4 and 0.22
- W41270_DB81_seg11 normalized Real Time PCR [1]: 1.44 and 1.78 and 1.48 and 0.5 and 0.62 and 0.43
- W64472_DB81_seg2 normalized Real Time PCR [1]: 1.07 (2×) and 1.1 and 0.55 and 1.45 and 0.41
- W83813_DB81_seg27 normalized Real Time PCR [1]: 2.07 and 2.19 and 1.66 and 0.47 and 0.51 and 0.65
- AA686189_DB71_seg6 normalized Real Time PCR expression [2]: 0.38 (2×) and 0.52 and 0.36 and 0.59 and 0.64
- AA799594_DB71_seg0 normalized Real Time PCR expression [2]: 1.25 and 1.43 and 1.27 and 1.09 and 1.15 and 1.05
- AA964541_DB71_seg0 normalized Real Time PCR expression [2]: 0.41 and 0.55 and 0.3 and 0.28 and 0.6 and 0.56
- AI045075_DB71_seg6 normalized Real Time PCR expression [2]: 0.6 and 0.54 and 0.5 and 0.66 and 0.87 and 0.84
- AI454051_DB71_seg0 normalized Real Time PCR expression [2]: 1.47 and 1.46 and 1.08 and 1.48 and 2.13 and 0.77
- AI502869_DB71_seg0 normalized Real Time PCR expression [2]: 0.54 and 1.37 and 0.56 and 1.14 and 2.59 and 0.86
